Laboratory results as given in PMC11990108, “Anti-HIV Activity of Tigliane Derivatives from Euphorbia nicaeensis Roots” (Molecules, 2025).
Like-named read-outs stand apart in the source and are kept apart here.

How the values were obtained:
HIV-1 = test system: HIV-1; set-up: method as in PMID 32229336, PMID 21561135, PMID 33172265, PMID 34445872; conditions: other tiglianes from the literature; ref [25],[26],[27],[28],[29]; read-out: IC50 anti-HIV-1 activity; cited from earlier work
[1] = cellular toxicity in uninfected MT-4 cells (MTS method); format: cell-based; conditions: human
Experimental: (§1) The MT-4 cell line was a kind gift from Dr. L. Montagner (at that time at the Pasteur Institute; Paris, France). This cell line was cultured in RPMI medium (Thermo Fisher Scientific, Waltham, MA, USA) containing 10% fetal bovine serum (FBS; Thermo Fisher Scientific, Waltham, MA, USA) and 2 mM L-glutamine (Thermo Fisher Scientific, Waltham, MA, USA).
(§2) To determine the anti-HIV-activity of the compounds, MT-4 cells (5 × 10^4 cells) were treated with 5-fold dilutions of the compounds for 30 min at 37 °C, 5% CO2 in 96-well-plates. After 30 min, cells were infected with 100 TCID50 (tissue culture infective dose 50%) HIV-1 (NL4.3) or HIV-2 (ROD) virus stocks. After five days of incubation (37 °C, 5% CO2), the cytopathic effect was checked microscopically, and cell viability was evaluated using the MTS/PES-based CellTiter 96 Aqueous One Solution Cell Proliferation assay (Promega Madison, WI, USA). Absorbance at 490 nm was measured using the VersaMax ELISATM microplate reader (Molecular Devices) and analyzed with the SoftMax Pro software (Molecular Devices, Version 4.0, www.moleculardevices.com, accessed on 10 January 2015). The IC50-values were calculated based on the absorbance signals measured in the negative (i.e., untreated and uninfected cells) and positive (i.e., untreated virus-infected cells) control samples.
The CC50 or 50% cellular cytoxic concentration of compounds was determined from the reduction of viability of uninfected MT-4 cells or PBMCs exposed to the compounds, as measured by the MTS method described above.

HIV-1 NL4.3 = assay: anti-HIV replication assay, HIV-1 NL4.3 in MT-4 cells (MTS/PES viability readout); format: cell-based
Experimental: as §1
(§3) The HIV-1 strain NL4.3 (X4) and HIV-2 strain ROD (X4/R5) were obtained from the National Institute of Allergy and Infectious Disease AIDS program (Bethesda, MD, USA) and the Medical Research Council (MRC, London, UK), respectively. The HIV-1 strain HE (X4/R5) was originally isolated from a AIDS patient and was routinely cultured in MT-4 cells. The 50% tissue culture infectious doses of the virus stocks were used in the infection assays.
as §2

HIV-2 ROD = assay: anti-HIV replication assay, HIV-2 ROD in MT-4 cells (MTS/PES viability readout); format: cell-based; conditions: Human immunodeficiency virus 2, MT4, 120 h, read-out: IC50 HIV-2
Experimental: as §1, §3, §2

[2] = Human immunodeficiency virus 1, MT4, 120 h, read-out: IC50 HIV-1
[3] = Human immunodeficiency virus 1, MT4, read-out: IC50 values, anti-HIV activity

IC50 (HIV-1 NL4.3; Human immunodeficiency virus 1, MT4, 120 h, HIV-1 NL4.3 replication in MT-4 cells, five days, read-out: IC50 HIV-1) [µM] | IC50 (HIV-2 ROD; HIV-2 ROD replication in MT-4 cells, five days) [µM] | Compound | IC50 (HIV-1) [µM] | CC50 at 5 days [1] [µM] | IC50 (HIV-1 NL4.3; [2]) [µM] | IC50 (HIV-1 NL4.3; [3]) [µM] | IC50 (HIV-2 ROD) [µM]
 |  | CCCCCCCC(=O)O[C@@]12[C@H](OC(=O)c3ccccc3)[C@@H](C)[C@]3(O)[C@@H]4C=C(C)C(=O)[C@@]4(O)[C@H](O)C(CO)=C[C@H]3[C@@H]1C2(C)C [stelleracin C] | 0.0023 |  |  |  | 
 |  | CC(=O)O[C@@]12[C@H](OC(=O)c3ccccc3)[C@@H](C)[C@]3(O)[C@@H]4C=C(C)C(=O)[C@H]4CC(C)=C[C@H]3[C@@H]1C2(C)C [Compound 2, 13α-Acetyloxy-12β-benzoyloxy-4,20-dideoxyphorbol] |  | 94 | 7.5 ± 0.2 | 1.1 to 7.47 | 1.7 ± 1.3
 |  | CCCCCCCCCCCCCCCC(=O)O[C@@]12C[C@@H](C)[C@@]3(O)[C@@H](C=C(CO)C[C@]4(O)C(=O)C(C)=C[C@@H]34)[C@@H]1C2(C)C [12-deoxyphorbol-13-hexadecanoate] | 0.022 |  |  |  | 
 |  | CC1=C[C@H]2[C@@H]3C(C)(C)[C@]3(OC(=O)CC(C)C)[C@H](OC(=O)c3ccccc3)[C@@H](C)[C@]2(O)[C@@H]2C=C(C)C(=O)[C@@H]2C1 [Compound 3, 12β-Benzoyloxy-13α-isovaleryloxy-4-epi-4,20-dideoxyphorbol] |  | 17.6 ± 0.3 | > 18 |  | > 18
 |  | CC(=O)O[C@@]12[C@H](OC(=O)c3ccccc3)[C@@H](C)[C@]3(O)[C@@H]4C=C(C)C(=O)[C@@H]4CC(C)=C[C@H]3[C@@H]1C2(C)C [Compound 1, 13α-Acetyloxy-12β-benzoyloxy-4-epi-4,20-dideoxyphorbol] |  | 42 | > 42 |  | 9.4 ± 1.4
 |  | C[C@H](Cn1cnc2c(N)ncnc21)OCP(=O)(O)O [PMPA, reference compound] |  | > 100 | 2.4 ± 0.7 |  | 0.7 ± 0.5
0.008 ± 0.002 | 0.0075 ± 0.0005 | c1cc(CN2CCCNCCNCCCNCC2)ccc1CN1CCCNCCNCCCNCC1 [AMD3100, reference compound] |  | > 10 |  |  | 
 |  | CC(=O)O[C@@H]1[C@@H](C)[C@]2(O)[C@@H]3C=C(C)C(=O)[C@@H]3CC(C)=C[C@H]2[C@@H]2C(C)(C)[C@]12OC(=O)C(C)C [Compound 6, 12β-acetyloxy-13α-isobutanoyloxy-4-epi-4,20-dideoxyphorbol] |  | 101 | > 101 |  | > 101
 |  | CC(=O)OCC1=C[C@H]2[C@@H]3C(C)(C)[C@]3(OC(C)=O)[C@H](OC(=O)c3ccccc3)[C@@H](C)[C@]2(O)[C@@H]2C=C(C)C(=O)[C@@H]2C1 [Compound 8, 13α,20-diacetylohy-12β-benzoyloxy-4-epi-4-deoxyphorbol] |  | 20.8 ± 5.6 | 3.3 ± 1.8 | 1.1 to 7.47 | 1.1 ± 0.8
 |  | CC(=O)O[C@@H]1[C@@H](C)[C@]2(O)[C@@H]3C=C(C)C(=O)[C@@H]3CC(C)=C[C@H]2[C@@H]2C(C)(C)[C@]12OC(=O)CC(C)C [Compound 4, 12β-Acetyloxy-13α-isovaleryloxy-4-epi-4,20-dideoxyphorbol] |  | 52 | > 52 |  | > 52
 |  | CC1=C[C@H]2[C@@H]3C(C)(C)[C@]3(OC(=O)C(C)C)[C@H](OC(=O)c3ccccc3)[C@@H](C)[C@]2(O)[C@@H]2C=C(C)C(=O)[C@@H]2C1 [Compound 5, 12β-benzoyloxy-13α-isobutanoyloxy-4-epi-4,20-dideoxyphforbol] |  | 33.5 ± 0.4 | > 34 |  | 4.6 ± 2.3
